The values that follow come from ChEMBL document CHEMBL5357036, “Latest developments in coumarin-based anticancer agents: mechanism of action and structure-activity relationship studies” (RSC Med Chem, 2024).

The structures appear in SMILES notation. Bounds are passed on as bounds.

In assay [1] the test system is HT-29. Kind of assay: Cytotoxicity against human HT-29 cells assessed as reduction in cell viability by MTT assay. It is filed as functional, cell-based. On the technique in general: Tetrazolium assays rely on reduction of a dye to a coloured formazan, in cell work by metabolically active cells.
Assay [2] concerns MCF7. Kind of assay: cells. The conditions noted are these: Homo sapiens, MCF7, 48 h.
Description: Anticancer activity against human MCF7 cells assessed as inhibition of cell growth incubated for 48 hrs by SRB assay
Assay [3] concerns MDA-MB-231. Kind of assay: Cytotoxicity against human MDA-MB-231 cells assessed as cell growth inhibition measured after 48 hrs by SRB assay. It is filed as functional, cell-based. The conditions noted are these: MDA-MB-231, 48 h. Background: In SRB staining, fixed cells bind dye roughly in proportion to their protein.
The test system of assay [4] is HT-29. Kind of assay: Cytotoxicity against human HT-29 cells assessed as reduction in cell viability incubated for 48 hrs by SRB assay. It is filed as functional, cell-based. The note with it: HT-29, 48 h.
For assay [5], the system named is HCT-116. Kind of assay: Cytotoxicity against human HCT-116 cells assessed as reduction in cell viability incubated for 48 hrs by SRB assay. It is filed as functional, cell-based. The note with it: HCT-116, 48 h.
Assay [6] concerns HCT-116. Briefly: Cytotoxicity against human HCT-116 cells assessed as reduction in cell viability incubated for 96 hrs by MTT assay. It is filed as functional, cell-based. The conditions noted are these: HCT-116, 96 h.
The test system of assay [7] is MDA-MB-231. Kind of assay: Antiproliferative activity against human MDA-MB-231 cells assessed as cell growth inhibition incubated for 96 hrs by MTT assay. It is filed as functional, cell-based. The note with it: MDA-MB-231, 96 h.

On to `CCOC(=O)c1cc2ccc(OCCn3cc(CO[C@H]4O[C@@H]5O[C@@]6(C)CC[C@H]7[C@H](C)CC[C@@H]([C@H]4C)[C@@]57OO6)nn3)cc2oc1=O`, for which the IC50 in assay [1] is 50 nM. `Cc1ccc(/N=N/c2sc(N3N=C(c4c(O)c5ccccc5oc4=O)CC3c3ccc(N(C)C)cc3)nc2-c2ccccc2)cc1` (centres undefined) had an IC50 in assay [2] of 5410 nM. Turning to `CN(C)c1ccc(C2CC(c3c(O)c4ccccc4oc3=O)=NN2c2nc(-c3ccccc3)c(/N=N/c3ccc(Cl)cc3)s2)cc1` (centres undefined), 5410 nM corresponded to half-maximal inhibition in assay [2] (IC50). Turning to `Cc1c(Cl)c(=O)oc2cc(OCCn3cc(CO[C@H]4O[C@@H]5O[C@@]6(C)CC[C@H]7[C@H](C)CC[C@@H]([C@H]4C)[C@@]57OO6)nn3)ccc12`, the IC50 in assay [1] came out at 50 nM. On to `Cc1ccc2oc(=O)cc(Cn3cc(CO[C@H]4O[C@@H]5O[C@@]6(C)CC[C@H]7[C@H](C)CC[C@@H]([C@H]4C)[C@@]57OO6)nn3)c2c1`, for which the IC50 in assay [3] is more than 100000 nM. For `Cc1c(Cl)c(=O)oc2cc(OCn3cc(CCO[C@H]4O[C@@H]5O[C@@]6(C)CC[C@H]7[C@H](C)CC[C@@H]([C@H]4C)[C@@]57OO6)nn3)ccc12`, the IC50 in assay [1] turned out to be 2460 nM. On to `C[C@H]1[C@@H](OCc2cn(Cc3cc(=O)oc4cc(O)ccc34)nn2)O[C@@H]2O[C@@]3(C)CC[C@H]4[C@H](C)CC[C@@H]1[C@@]24OO3`, for which the IC50 in assay [3] was more than 100000 nM.

Take `Cc1cc(=O)oc2cc(OCCn3cc(CO[C@H]4O[C@@H]5O[C@@]6(C)CC[C@H]7[C@H](C)CC[C@@H]([C@H]4C)[C@@]57OO6)nn3)ccc12`: the concentration for half-maximal inhibition (IC50) in assay [1] turned out to be 50 nM. Same read-out and setting: the figure for `Cc1c(Cl)c(=O)oc2cc(OCCCn3cc(CO[C@H]4O[C@@H]5O[C@@]6(C)CC[C@H]7[C@H](C)CC[C@@H]([C@H]4C)[C@@]57OO6)nn3)ccc12` is 1220 nM.

For `C[C@H]1[C@@H](OCCc2cn(Cc3cc(=O)oc4cc(O)ccc34)nn2)O[C@@H]2O[C@@]3(C)CC[C@H]4[C@H](C)CC[C@@H]1[C@@]24OO3`, in assay [3], the IC50 was more than 100000 nM. On to `Cc1cc(=O)oc2cc(Nc3nc(-c4ccc(Cl)cc4)cs3)ccc12`, for which the IC50 in assay [4] and in assay [5] was 250 nM throughout.

Consider `Cc1c(C)c2ccc(OCCCn3cc(CO[C@H]4O[C@@H]5O[C@@]6(C)CC[C@H]7[C@H](C)CC[C@@H]([C@H]4C)[C@@]57OO6)nn3)cc2oc1=O`, for which the IC50 in assay [1] came out at 1220 nM. Same read-out and setting: the figure for `Cc1cc(=O)oc2cc(OCCCn3cc(CO[C@H]4O[C@@H]5O[C@@]6(C)CC[C@H]7[C@H](C)CC[C@@H]([C@H]4C)[C@@]57OO6)nn3)ccc12` is 1220 nM.

`Cc1ccc2c(Cn3cc(CO[C@H]4O[C@@H]5O[C@@]6(C)CC[C@H]7[C@H](C)CC[C@@H]([C@H]4C)[C@@]57OO6)nn3)cc(=O)oc2c1`: in assay [3], the 50% inhibitory concentration (IC50) is more than 100000 nM. On to `C[C@H]1[C@@H](OCc2cn(CCOc3ccc4c(C(F)(F)F)cc(=O)oc4c3)nn2)O[C@@H]2O[C@@]3(C)CC[C@H]4[C@H](C)CC[C@@H]1[C@@]24OO3`, for which, in assay [1], the IC50 came out at 50 nM. For `Cc1cc(C)c2oc(=O)cc(OCn3cc(CCCO[C@H]4O[C@@H]5O[C@@]6(C)CC[C@H]7[C@H](C)CC[C@@H]([C@H]4C)[C@@]57OO6)nn3)c2c1`, the IC50 in assay [6] and in assay [7] was 39 nM throughout. As for `Cc1c(Cl)c(=O)oc2cc(OCn3cc(CCCO[C@H]4O[C@@H]5O[C@@]6(C)CC[C@H]7[C@H](C)CC[C@@H]([C@H]4C)[C@@]57OO6)nn3)ccc12`, the IC50 in assay [1] was more than 100000 nM.

Take `Cc1c(C)c2ccc(OCCn3cc(CO[C@H]4O[C@@H]5O[C@@]6(C)CC[C@H]7[C@H](C)CC[C@@H]([C@H]4C)[C@@]57OO6)nn3)cc2oc1=O`: in assay [1], the IC50 turned out to be 50 nM. `CN(C)c1ccc(C2CC(c3cc4ccccc4oc3=O)=NN2c2nc(-c3ccccc3)c(/N=N/c3ccc(Cl)cc3)s2)cc1` (centres undefined) came in with an IC50 in assay [2] of 5410 nM. On to `Cc1c(C)c2ccc(OCn3cc(CCCO[C@H]4O[C@@H]5O[C@@]6(C)CC[C@H]7[C@H](C)CC[C@@H]([C@H]4C)[C@@]57OO6)nn3)cc2oc1=O`, for which the IC50 in assay [1] was more than 100000 nM.

For the compound `Cc1c(C)c2ccc(OCn3cc(CCO[C@H]4O[C@@H]5O[C@@]6(C)CC[C@H]7[C@H](C)CC[C@@H]([C@H]4C)[C@@]57OO6)nn3)cc2oc1=O`, in assay [1], the IC50 was determined as 2460 nM. As for `Cc1cc(=O)oc2cc(OCn3cc(CCO[C@H]4O[C@@H]5O[C@@]6(C)CC[C@H]7[C@H](C)CC[C@@H]([C@H]4C)[C@@]57OO6)nn3)ccc12`, the IC50 in assay [1] is 2460 nM. Regarding `Cc1cccc2c(OCn3cc(CCO[C@H]4O[C@@H]5O[C@@]6(C)CC[C@H]7[C@H](C)CC[C@@H]([C@H]4C)[C@@]57OO6)nn3)cc(=O)oc12`, the IC50 in assay [6] was more than 100000 nM. For `C[C@H]1[C@@H](OCCCc2cn(COc3ccc4c(C(F)(F)F)cc(=O)oc4c3)nn2)O[C@@H]2O[C@@]3(C)CC[C@H]4[C@H](C)CC[C@@H]1[C@@]24OO3`, the IC50 in assay [1] was more than 100000 nM. `Cc1ccc2oc(=O)cc(Cn3cc(CCO[C@H]4O[C@@H]5O[C@@]6(C)CC[C@H]7[C@H](C)CC[C@@H]([C@H]4C)[C@@]57OO6)nn3)c2c1`: the IC50 in assay [3] was more than 100000 nM. For the compound `Cc1cc(C)c2oc(=O)cc(OCn3cc(CCO[C@H]4O[C@@H]5O[C@@]6(C)CC[C@H]7[C@H](C)CC[C@@H]([C@H]4C)[C@@]57OO6)nn3)c2c1`, the IC50 in assay [6] is more than 100000 nM.

Take `C[C@H]1[C@@H](OCCCc2cn(COc3cc(=O)oc4ccccc34)nn2)O[C@@H]2O[C@@]3(C)CC[C@H]4[C@H](C)CC[C@@H]1[C@@]24OO3`: the IC50 in assay [6] and in assay [7] was 39 nM throughout.

`Cc1nc(N2N=C(c3cc4ccccc4oc3=O)CC2c2ccc(N(C)C)cc2)sc1/N=N/c1ccc(Cl)cc1` (centres undefined) came in with an IC50 in assay [2] of 5410 nM. As to `Cc1cc(C)c2c(Cn3cc(CO[C@H]4O[C@@H]5O[C@@]6(C)CC[C@H]7[C@H](C)CC[C@@H]([C@H]4C)[C@@]57OO6)nn3)cc(=O)oc2c1`, the IC50 in assay [3] was more than 100000 nM. On to `Cc1cc(=O)oc2cc(OCn3cc(CCCO[C@H]4O[C@@H]5O[C@@]6(C)CC[C@H]7[C@H](C)CC[C@@H]([C@H]4C)[C@@]57OO6)nn3)ccc12`, for which the IC50 in assay [1] was more than 100000 nM.

For `Cc1cc(C)c2c(OCn3cc(CCCO[C@H]4O[C@@H]5O[C@@]6(C)CC[C@H]7[C@H](C)CC[C@@H]([C@H]4C)[C@@]57OO6)nn3)cc(=O)oc2c1`, the IC50 in assay [6] and in assay [7] was 39 nM each time. For the compound `Cc1cc(C)c2c(OCn3cc(CCO[C@H]4O[C@@H]5O[C@@]6(C)CC[C@H]7[C@H](C)CC[C@@H]([C@H]4C)[C@@]57OO6)nn3)cc(=O)oc2c1`, in assay [6], the IC50 is more than 100000 nM.

Consider `Cc1cc(C)c2c(Cn3cc(CCO[C@H]4O[C@@H]5O[C@@]6(C)CC[C@H]7[C@H](C)CC[C@@H]([C@H]4C)[C@@]57OO6)nn3)cc(=O)oc2c1`, for which, in assay [3], the IC50 was more than 100000 nM. As for `Cc1ccc2c(OCn3cc(CCO[C@H]4O[C@@H]5O[C@@]6(C)CC[C@H]7[C@H](C)CC[C@@H]([C@H]4C)[C@@]57OO6)nn3)cc(=O)oc2c1C`, in assay [6], the IC50 is more than 100000 nM. Turning to `CCOC(=O)c1cc2ccc(OCn3cc(CCO[C@H]4O[C@@H]5O[C@@]6(C)CC[C@H]7[C@H](C)CC[C@@H]([C@H]4C)[C@@]57OO6)nn3)cc2oc1=O`, the IC50 in assay [1] came out at 2460 nM. As for `Cc1ccc2oc(=O)cc(OCn3cc(CCCO[C@H]4O[C@@H]5O[C@@]6(C)CC[C@H]7[C@H](C)CC[C@@H]([C@H]4C)[C@@]57OO6)nn3)c2c1`, the IC50 in assay [6] and in assay [7] was 39 nM in each case.

Turning to `CCOC(=O)c1cc2ccc(OCn3cc(CCCO[C@H]4O[C@@H]5O[C@@]6(C)CC[C@H]7[C@H](C)CC[C@@H]([C@H]4C)[C@@]57OO6)nn3)cc2oc1=O`, in assay [1], the IC50 was more than 100000 nM.

With `Cc1cccc2c(OCn3cc(CCCO[C@H]4O[C@@H]5O[C@@]6(C)CC[C@H]7[C@H](C)CC[C@@H]([C@H]4C)[C@@]57OO6)nn3)cc(=O)oc12`, the IC50 in assay [6] and in assay [7] was 39 nM throughout. For `Cc1ccc2c(OCn3cc(CCCO[C@H]4O[C@@H]5O[C@@]6(C)CC[C@H]7[C@H](C)CC[C@@H]([C@H]4C)[C@@]57OO6)nn3)cc(=O)oc2c1`, the half-maximal inhibitory concentration (IC50) in assay [6] and in assay [7] was 39 nM in each case. For the compound `CCOC(=O)c1cc2ccc(OCCCn3cc(CO[C@H]4O[C@@H]5O[C@@]6(C)CC[C@H]7[C@H](C)CC[C@@H]([C@H]4C)[C@@]57OO6)nn3)cc2oc1=O`, the IC50 in assay [1] is 1220 nM. On the same count and under the same terms, next, `C[C@H]1[C@@H](OCc2cn(CCCOc3ccc4c(C(F)(F)F)cc(=O)oc4c3)nn2)O[C@@H]2O[C@@]3(C)CC[C@H]4[C@H](C)CC[C@@H]1[C@@]24OO3`: 1220 nM. Take `C[C@H]1[C@@H](OCCc2cn(COc3cc(=O)oc4ccccc34)nn2)O[C@@H]2O[C@@]3(C)CC[C@H]4[C@H](C)CC[C@@H]1[C@@]24OO3`: the IC50 in assay [6] was more than 100000 nM.

For the compound `Cc1ccc2c(Cn3cc(CCO[C@H]4O[C@@H]5O[C@@]6(C)CC[C@H]7[C@H](C)CC[C@@H]([C@H]4C)[C@@]57OO6)nn3)cc(=O)oc2c1`, the IC50 in assay [3] was more than 100000 nM.

In the case of `CC1SC(N2N=C(c3cc4ccccc4oc3=O)CC2c2ccc(N(C)C)cc2)=NC1=O` (centres undefined), the IC50 in assay [2] amounted to 5410 nM. With `C[C@H]1[C@@H](OCCc2cn(COc3ccc4c(C(F)(F)F)cc(=O)oc4c3)nn2)O[C@@H]2O[C@@]3(C)CC[C@H]4[C@H](C)CC[C@@H]1[C@@]24OO3`, in assay [1], the IC50 was determined as 2460 nM. As to `Cc1ccc2c(OCn3cc(CCCO[C@H]4O[C@@H]5O[C@@]6(C)CC[C@H]7[C@H](C)CC[C@@H]([C@H]4C)[C@@]57OO6)nn3)cc(=O)oc2c1C`, the IC50 in assay [6] and in assay [7] was 39 nM in each case.

One may read the IC50 as the concentration needed to halve the response being measured.
